Data from the supplement of paper PMC10627819.

Tested on: S. aureus DSM 20231
Assay: Bliss interaction score (quartile over a dose matrix) (fitness difference); higher = more antagonism (negative = synergy)
Summary of the method: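 Quartiles of the Bliss score were taken over technical, biological and donor/recipient replicates. That score is observed fitness minus the product of the single-drug fitness values, which were inferred from combination data. Fitness itself is OD595 at entry into stationary phase divided by the plate's robust no-drug mean, with a cap at 1.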
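Note: first quartile when negative (synergy) and third quartile when positive (antagonism).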

Compound | Bliss interaction score | Bliss interaction score (main component drawn)
CC(=O)OC[C@H]1O[C@@H]([S-])[C@H](OC(C)=O)[C@@H](OC(C)=O)[C@@H]1OC(C)=O.CCP(CC)CC.[Au+] [Auranofin] + CC(=O)Oc1cccc2c1C(=O)c1c(OC(C)=O)cc(C(=O)O)cc1C2=O [Diacerein] | -0.466 | –
CC(=O)OC[C@H]1O[C@@H]([S-])[C@H](OC(C)=O)[C@@H](OC(C)=O)[C@@H]1OC(C)=O.CCP(CC)CC.[Au+] [Auranofin] + C[C@H]1C[C@@H]2[C@H]([C@@H](O)C[C@@]3(C)[C@H]2CC[C@]3(O)C(=O)CO)[C@@]2(C)C=CC(=O)C=C12 [Methylprednisolone] | 0.162 | –
CCc1oc2ccccc2c1C(=O)c1cc(Br)c(O)c(Br)c1 [Benzbromarone] + C1=CC(=CC(=C1)Cl)NN=C(C#N)C#N [CCCP] | -0.103 | –
CCc1oc2ccccc2c1C(=O)c1cc(Br)c(O)c(Br)c1 [Benzbromarone] + CC(C1CCC(C(O1)OC2C(CC(C(C2O)OC3C(C(C(CO3)(C)O)NC)O)N)N)N)NC [Gentamicin] | – | 0.189
CCc1oc2ccccc2c1C(=O)c1cc(Br)c(O)c(Br)c1 [Benzbromarone] + N[C@@H]1CONC1=O [CycloserineD] | -0.109 | –
CCc1oc2ccccc2c1C(=O)c1cc(Br)c(O)c(Br)c1 [Benzbromarone] + O=C(O[C@@H]1Cc2c(O)cc(O)cc2O[C@@H]1c1cc(O)c(O)c(O)c1)c1cc(O)c(O)c(O)c1 [EGCG] | -0.139 | –
O=C(N[C@H](CO)[C@H](O)c1ccc([N+](=O)[O-])cc1)C(Cl)Cl [Chloramphenicol] + CC(=O)Oc1cccc2c1C(=O)c1c(OC(C)=O)cc(C(=O)O)cc1C2=O [Diacerein] | -0.41 | –
O=C(N[C@H](CO)[C@H](O)c1ccc([N+](=O)[O-])cc1)C(Cl)Cl [Chloramphenicol] + CCCSc1nc(N[C@@H]2C[C@H]2c2ccc(F)c(F)c2)c2nnn([C@@H]3C[C@H](OCCO)[C@@H](O)[C@H]3O)c2n1 [Ticagrelor] | -0.239 | –
O=C(N[C@H](CO)[C@H](O)c1ccc([N+](=O)[O-])cc1)C(Cl)Cl [Chloramphenicol] + C[C@H]1C[C@@H]2[C@H]([C@@H](O)C[C@@]3(C)[C@H]2CC[C@]3(O)C(=O)CO)[C@@]2(C)C=CC(=O)C=C12 [Methylprednisolone] | -0.204 | –
CC[C@H]1OC(=O)[C@H](C)[C@@H](O[C@H]2C[C@@](C)(OC)[C@@H](O)[C@H](C)O2)[C@H](C)[C@@H](O[C@@H]2O[C@H](C)C[C@H](N(C)C)[C@H]2O)[C@](C)(OC)C[C@@H](C)C(=O)[C@H](C)[C@@H](O)[C@]1(C)O [Clarithromycin] + CC(C)Cc1ccc(C(C)C(=O)O)cc1 [Ibuprofen] | -0.171 | –
CC[C@H]1OC(=O)[C@H](C)[C@@H](O[C@H]2C[C@@](C)(OC)[C@@H](O)[C@H](C)O2)[C@H](C)[C@@H](O[C@@H]2O[C@H](C)C[C@H](N(C)C)[C@H]2O)[C@](C)(OC)C[C@@H](C)C(=O)[C@H](C)[C@@H](O)[C@]1(C)O [Clarithromycin] + CN1CCC[C@H]1c1cccnc1 [Nicotine] | -0.223 | –
CC[C@H]1OC(=O)[C@H](C)[C@@H](O[C@H]2C[C@@](C)(OC)[C@@H](O)[C@H](C)O2)[C@H](C)[C@@H](O[C@@H]2O[C@H](C)C[C@H](N(C)C)[C@H]2O)[C@](C)(OC)C[C@@H](C)C(=O)[C@H](C)[C@@H](O)[C@]1(C)O [Clarithromycin] + C[C@H]1C[C@@H]2[C@H]([C@@H](O)C[C@@]3(C)[C@H]2CC[C@]3(O)C(=O)CO)[C@@]2(C)C=CC(=O)C=C12 [Methylprednisolone] | -0.275 | –
CC[C@H]1OC(=O)[C@H](C)[C@@H](O[C@H]2C[C@@](C)(OC)[C@@H](O)[C@H](C)O2)[C@H](C)[C@@H](O[C@@H]2O[C@H](C)C[C@H](N(C)C)[C@H]2O)[C@](C)(OC)C[C@@H](C)C(=O)[C@H](C)[C@@H](O)[C@]1(C)O [Clarithromycin] + Cc1c(Cl)cccc1Nc1ccccc1C(=O)O [Tolfenamic] | -0.245 | –
CC[C@H]1OC(=O)[C@H](C)[C@@H](O[C@H]2C[C@@](C)(OC)[C@@H](O)[C@H](C)O2)[C@H](C)[C@@H](O[C@@H]2O[C@H](C)C[C@H](N(C)C)[C@H]2O)[C@](C)(OC)C[C@@H](C)C(=O)[C@H](C)[C@@H](O)[C@]1(C)O [Clarithromycin] + O=C(O)Cc1cc(I)c(Oc2ccc(O)c(I)c2)c(I)c1 [Tiratricol] | 0.192 | –
CCC[C@@H]1C[C@@H](C(=O)N[C@@H]([C@H]2O[C@H](SC)[C@H](O)[C@@H](O)[C@H]2O)[C@H](C)Cl)N(C)C1 [Clindamycin] + CC(C)Cc1ccc(C(C)C(=O)O)cc1 [Ibuprofen] | -0.231 | –
